Reference: patent US12167998B2, “Spiro-lactam NMDA receptor modulators and uses thereof” (Tenacia Biotechnology (Hong Kong) Co., Limited, priority 2013, dated 2024)
Like-named read-outs stand apart in the source and are kept apart here.

Legend:
[1] = target: NMDA receptor glycine site, rat cortical membranes (Rattus norvegicus (Rat), UniProt P35439); test: [3H] MK-801 binding assay (potentiation of [3H]MK-801 binding)
Experimental: Assays were conducted as described in Moskal et al. (Moskal, J. R., Kuo, A. G., Weiss, C., Wood, P. L., O'Connor Hanson, A., Kelso, S., Harris, R. B., Disterhoft, J. F., 2005. GLYX-13: a monoclonal antibody-derived peptide that acts as an N-methyl-D-aspartate receptor modulator. Neuropharmacology. 49, 1077-87) The potentiation of [^3H]MK-801 binding (5 nM; 22.5 Ci/mmol) to well washed rat cortical membranes (200 μg) was measured under non-equilibrium conditions (15 min @ 25° C.) in the presence of increasing concentrations of test compounds and […]. Zero levels were determined in the absence of any glycine ligand and in the presence of 30 μM 5.7 DCKA. Maximal stimulation was measured in the presence of 1 mM glycine, and 500 μM glutamate was present in all samples. The facilitation of [^3H]MK-801 binding by tests compounds was calculated by using a 3 parameter log agonist vs. response equation (Graph pad Prism, USA) and potency (EC50, expressed in pM) and maximal activity (% maximal stimulation) were calculated for the test compound.

[2] = tested on: hippocampal slices, Schaffer collateral-CA1; test: Long term potentiation in hippocampal slices; format: cell-based, rat; settings: for LTP: LTP Augmentation (%): Table 4
Experimental: Assays were conducted as described in Zhang et al. (Zhang, X. L., Sullivan, J. A., Moskal, J. R., Stanton, P. K., 2008. A NMDA receptor glycine site partial agonist, GLYX-13, simultaneously enhances LTP and reduces LTD at Schaffer collateral-CA1 synapses in hippocampus. Neuropharmacology. 55, 1238-50) Sprague-Dawley rats (12-18 days old; Taconic Farms) were deeply anesthetized with isoflurane and decapitated. Rat brains were removed rapidly, submerged in ice-cold artificial cerebrospinal fluid (ACSF, 2-4° C.), which contained (in mM): 124 NaCl, 4 KCl, 2 MgSO4, 2 CaCl2, 1.25 NaH2PO4, 26 NaHCO3, 10 glucose; at pH 7.4, gassed continuously with 95% O2/5% CO2). The rat brains were hemisected, the frontal lobes cut off, and individual hemispheres glued using cyanoacrylate adhesive onto a stage immersed in ice-cold ACSF gassed continuously with 95% O2/5% CO2 during slicing. Coronal slices (400 μm thick) were cut using a Vibratome (Leica VT1200S), and transferred to an interface holding chamber for incubation at room temperature for a minimum of one hour before transferring to a Haas-style interface recording chamber continuously perfused at 3 ml/min with oxygenated ACSF at 32±0.5° C. Low resistance recording electrodes were made from thin-walled borosilicate glass (1-2 MΩ after filling with ACSF) and inserted into the apical dendritic region of the Schaffer collateral termination field in stratum radiatum of field CA1 region to record field excitatory postsynaptic potentials (fEPSPs). A bipolar stainless steel stimulating electrode (FHC Co.) was placed on Schaffer collateral-commissural fibers in CA3 stratum radiatum, and constant current stimulus intensity adjusted to evoke approximately half-maximal fEPSPs once each 30 s ([…]; 100 μs duration). fEPSP slope was measured before and after induction of LTP by linear interpolation from 20 to 80% of maximum negative deflection, and slopes confirmed to be stable to within ±10% for at least 15 min before commencing an experiment. […] LTP was induced by stimulation of Schaffer collateral axons with four high frequency theta burst stimulus trains of 10×100 Hz/5 pulse bursts each, applied at an inter-burst interval of 200 ms. Each train was 2 seconds in duration, and trains were applied 15 seconds apart. The signals were recorded using a Multiclamp 700B amplifier and digitized with a Digidata 1322 (Axon Instruments, USA). Data were analyzed using pClamp software (version 9, Axon Instruments) on an IBM-compatible personal computer.

[3] = Porsolt test, floating time inhibition; format: in vivo; settings: 1 hour post dose
[4] = Table 4, rat cortex, read-out: MK-801 Glycine Site Binding Assay: Rat Cortex EC50
[5] = Table 3, read-out: [3H] MK-801 binding assay: EC50

Compound: CC1CCC2(N1)C(=O)N([C@H](C(=O)N1CCCC1)[C@@H](C)O)C2C (stereo partly drawn) [Compound 2S-FNL-38, 2-((2S,3R)-3-hydroxy-1-oxo-1-(pyrrolidin-1-yl)butan-2-yl)-3,6-dimethyl-2,5-diazaspiro[3.4]octan-1-one]
- EC50 [1, 4]: 3.31 nM

Compound: CC1CCC2(CN([C@H](C(N)=O)[C@@H](C)O)C2=O)N1 (stereo partly drawn) [Compound 2S-FNL-34, (2S,3R)-3-hydroxy-2-(6-methyl-1-oxo-2,5-diazaspiro[3.4]octan-2-yl) butanamide]
- Unified Activity Data: LTP Augmentation (Percent) ([2]; LTP concentration 0.1 uM): 100%
- Unified Activity Data: Porsolt Floating Time Inhibition (Percent) ([3]; 1 mg/kg PO): 73%

Compound: CC1CCC2(CN([C@H](C(N)=O)[C@@H](C)O)C2=O)N1C(=O)OC(C)(C)C (stereo partly drawn) [Compound 2S-FNL-33, tert-butyl 2-((2S,3R)-1-amino-3-hydroxy-1-oxobutan-2-yl)-6-methyl-1-oxo-2,5-diazaspiro[3.4] octane-5-carboxylate]
- EC50 [1, 4]: 18.9 nM
- LTP: LTP Augmentation (%) ([2]; LTP concentration 1 uM): 140%

Compound: C[C@@H](O)[C@@H](C(=O)NCc1ncno1)N1CC2(CCCN2C(=O)OC(C)(C)C)C1=O (stereo partly drawn) [Compound 2S-FNL-14, tert-butyl 2-((2S,3R)-1-(((1,2,4-oxadiazol-5-yl)methyl)amino)-3-hydroxy-1-oxobutan-2-yl)-1-oxo-2,5-diazaspiro[3.4] octane-5-carboxylate]
- EC50 [1, 4]: 0.0613 nM
- LTP: LTP Augmentation (%) ([2]; LTP concentration 1 uM): 120%

Compound: NC(=O)[C@H](CO)N1CC2(CCCN2)C1=O (stereo partly drawn) [Compound 2S-FNL-21, (2S)-3-hydroxy-2-(1-oxo-2,5-diazaspiro[3.4]octan-2-yl)propanamide]
- Unified Activity Data: LTP Augmentation (Percent) ([2]; LTP concentration 0.1 uM): 80%

Compound: C[C@@H](O)[C@@H](C(N)=O)N1CC2(CCCN2)C1=O (stereo partly drawn) [Compound X, (2S,3R)-3-hydroxy-2-(1-oxo-2,5-diazaspiro[3,4]octan-2-yl)butanamide]
- Emax ([1]; maximal stimulation measured with 1 mM glycine): 38%
- pEC50 ([1]; rat cortical membranes, 50 μM glutamate): 7.4
- EC50 ([1]; rat cortical membranes, 50 μM glutamate, read-out: pEC50 (converted)): 39.8 nM
- long-term potentiation after high frequency stimulation of Schaffer collateral-evoked NMDA e.p.s.c.s in CA1 pyramidal neurons ([2]; tested at 1 μM, FIG. 2): increased long-term potentiation

Compound: C[C@@H](O)[C@@H](C(=O)NCc1ccccc1)N1CC2(CCCN2C(=O)OC(C)(C)C)C1=O (stereo partly drawn) [Compound 2S-FNL-10, tert-butyl 2-((2S,3R)-1-(benzylamino)-3-hydroxy-1-oxobutan-2-yl)-1-oxo-2,5-diazaspiro[3.4] octane-5-carboxylate]
- EC50 [1, 4]: 0.00119 nM
- LTP: LTP Augmentation (%) ([2]; LTP concentration 1 uM): 90%

Compound: C[C@@H](O)[C@@H](C(N)=O)N1CC2(CCCN2)C1=O (stereo partly drawn) [Compound 2S-FNL-3, (2S,3R)-3-hydroxy-2-(1-oxo-2,5-diazaspiro[3.4]octan-2-yl) butanamide]
- EC50 [1, 5]: 54.3 nM
- Unified Activity Data: LTP Augmentation (Percent) ([2]; LTP concentration 1 uM): 130%
- Unified Activity Data: Porsolt Floating Time Inhibition (Percent) ([3]; 3 mg/kg IV): 80%

Compound: C[C@@H](O)[C@@H](C(N)=O)N1CC2(CCCN2C(=O)OC(C)(C)C)C1=O (stereo partly drawn) [Compound 2S-FNL-2, tert-butyl 2-((2S,3R)-1-amino-3-hydroxy-1-oxobutan-2-yl)-1-oxo-2,5-diazaspiro[3,4] octane-5-carboxylate]
- EC50 [1, 4]: 20 nM

Compound: CC(N)C(C(N)=O)N1CC2(CCCN2)C1=O (stereo not drawn) [Compound 2S-FNL-7, 3-amino-2-(1-oxo-2,5-diazaspiro[3.4]octan-2-yl)butanamide]
- EC50 [1, 5]: 11 nM

Compound: CC(=O)O[C@H](C)[C@@H](C(=O)N1CCCC1)N1CC2(CCCN2)C1=O (stereo partly drawn) [Compound 2S-FNL-27, (2R,3S)-4-oxo-3-(1-oxo-2,5-diazaspiro[3.4]octan-2-yl)-4-(pyrrolidin-1-yl) butan-2-yl acetate]
- EC50 [1, 5]: 0.00349 nM
